This note sets out measurements from patent publication US11866430B2, “Naphthyridinone compounds useful as T cell activators” (priority 2018, dated 2024).

Read-outs that look alike come from different tables or passages of the source. Some results are limits rather than exact numbers.

One assay has as its target human DGKα (Homo sapiens (Human), UniProt P23743). The experiment in a line: biochemical. The conditions noted are these: detergent/lipid micelle substrate; read-out: DGKα IC50. An outline of the steps: (§1)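 Full-length human DGKα or DGKζ (C-terminal His tag, Sf9-expressed; 20 nM 4× stock) was preincubated 10 min at room temperature with PS/DAG octyl glucoside micelles in MOPS pH 7.5 buffer with MgCl2, CaCl2 and DTT. It was then started with ATP (300 uM addition) and run for 1 hr, with ADP-Glo luminescence read-out.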

Assay [1] deals with pre-activated CD4 T cells and Raji cells. Briefly: Raji CD4 T Cell IL2 Assay. It is filed as cell-based.
The target of another assay is human DGKζ (Homo sapiens (Human), UniProt Q13574). Briefly: DGKζ assay (detergent/lipid micelle substrate). It is filed as biochemical. Conditions: detergent/lipid micelle substrate; read-out: DGKζ IC50. An outline of the steps:
as §1

Sequence of human DGKα (P23743 other isoform, or with tags, fused parts or gaps): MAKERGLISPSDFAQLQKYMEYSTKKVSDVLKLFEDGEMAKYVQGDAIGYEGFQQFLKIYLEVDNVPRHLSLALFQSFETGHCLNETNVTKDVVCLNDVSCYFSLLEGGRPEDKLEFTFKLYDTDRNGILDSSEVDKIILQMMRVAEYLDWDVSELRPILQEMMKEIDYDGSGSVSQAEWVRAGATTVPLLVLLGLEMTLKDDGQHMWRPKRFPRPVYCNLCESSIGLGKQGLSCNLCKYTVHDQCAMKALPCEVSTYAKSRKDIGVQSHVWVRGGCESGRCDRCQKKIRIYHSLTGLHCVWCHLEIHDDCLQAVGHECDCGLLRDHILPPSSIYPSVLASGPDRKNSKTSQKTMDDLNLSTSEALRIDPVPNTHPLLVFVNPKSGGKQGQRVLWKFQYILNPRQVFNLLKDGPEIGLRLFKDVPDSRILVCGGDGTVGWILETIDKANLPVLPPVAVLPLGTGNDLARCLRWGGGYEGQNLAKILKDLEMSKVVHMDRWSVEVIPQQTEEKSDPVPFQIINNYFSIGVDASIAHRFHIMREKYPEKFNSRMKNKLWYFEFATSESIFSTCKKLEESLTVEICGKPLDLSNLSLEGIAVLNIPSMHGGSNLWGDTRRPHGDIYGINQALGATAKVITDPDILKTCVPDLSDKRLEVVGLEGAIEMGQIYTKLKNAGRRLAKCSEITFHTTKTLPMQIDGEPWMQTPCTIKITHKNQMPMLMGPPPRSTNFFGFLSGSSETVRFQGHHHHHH
Sequence of human DGKζ (Q13574 other isoform, or with tags, fused parts or gaps): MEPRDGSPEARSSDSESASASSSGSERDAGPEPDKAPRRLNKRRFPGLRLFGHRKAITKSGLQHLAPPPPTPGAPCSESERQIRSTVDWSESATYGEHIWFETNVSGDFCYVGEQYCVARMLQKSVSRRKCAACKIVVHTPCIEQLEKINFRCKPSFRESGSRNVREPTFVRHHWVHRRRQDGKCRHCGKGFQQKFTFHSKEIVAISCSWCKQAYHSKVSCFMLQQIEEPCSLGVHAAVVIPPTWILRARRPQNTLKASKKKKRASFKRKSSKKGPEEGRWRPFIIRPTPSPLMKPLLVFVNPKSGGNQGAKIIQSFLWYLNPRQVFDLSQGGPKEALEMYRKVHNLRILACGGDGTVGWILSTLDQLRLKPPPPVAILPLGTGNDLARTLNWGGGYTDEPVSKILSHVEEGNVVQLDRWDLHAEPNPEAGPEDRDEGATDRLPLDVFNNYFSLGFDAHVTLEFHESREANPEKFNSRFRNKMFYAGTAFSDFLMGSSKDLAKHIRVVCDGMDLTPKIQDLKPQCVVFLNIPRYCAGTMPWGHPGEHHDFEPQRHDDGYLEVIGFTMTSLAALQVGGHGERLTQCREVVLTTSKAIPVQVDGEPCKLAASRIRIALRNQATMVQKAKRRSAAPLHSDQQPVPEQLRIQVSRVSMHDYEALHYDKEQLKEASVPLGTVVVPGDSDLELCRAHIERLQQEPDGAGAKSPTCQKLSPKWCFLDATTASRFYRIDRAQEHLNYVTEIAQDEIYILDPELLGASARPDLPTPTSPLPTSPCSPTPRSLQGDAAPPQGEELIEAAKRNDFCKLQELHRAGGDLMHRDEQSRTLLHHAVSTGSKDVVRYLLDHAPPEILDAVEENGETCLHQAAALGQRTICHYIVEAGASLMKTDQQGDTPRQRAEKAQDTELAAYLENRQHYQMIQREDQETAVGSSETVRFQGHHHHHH

With `Cn1c(=O)c(C#N)c(N2CCN(Cc3ccccc3O)CC2)c2nc(Br)ccc21` [Example 2, 6-Bromo-4-(4-(2-hydroxybenzyl)piperazin-1-yl)-1-methyl-2-oxo-1,2-dihydro-1,5-naphthyridine-3-carbonitrile], the IC50 at human DGKα is 49 nM; in assay [1] (Homo sapiens, Raji), 200 nM; at human DGKζ it was above 240000 nM.

For the molecule `Cn1c(=O)c(C#N)c(N2CCN(Cc3cccc(O)c3)CC2)c2nc(Cl)ccc21` [Example 351, 6-chloro-4-{4-[(3-hydroxyphenyl)methyl]piperazin-1-yl}-1-methyl-2-oxo-1,2-dihydro-1,5-naphthyridine-3-carbonitrile], the IC50 is 360 nM on human DGKα; 1500 nM in assay [1] (Homo sapiens, Raji); 190000 nM at human DGKζ.

Consider `COc1cccc(O)c1CN1CCN(c2c(C#N)c(=O)n(C)c3ccc(Br)nc23)CC1` [Example 314, 6-bromo-4-{4-[(2-hydroxy-6-methoxyphenyl)methyl]piperazin-1-yl}-1-methyl-2-oxo-1,2-dihydro-1,5-naphthyridine-3-carbonitrile], for which the 50% inhibitory concentration (IC50) at human DGKα is 170 nM; in assay [1] (Homo sapiens, Raji), 250 nM; on human DGKζ, 82000 nM.

As to `COc1ccc(CN2CCN(c3c(C#N)c(=O)n(C)c4ccc(Cl)nc34)CC2)cc1` [Example 341, 6-chloro-4-{4-[(4-methoxyphenyl)methyl]piperazin-1-yl}-1-methyl-2-oxo-1,2-dihydro-1,5-naphthyridine-3-carbonitrile], the IC50 at human DGKα is 320 nM; in assay [1] (Homo sapiens, Raji), 730 nM; on human DGKζ, above 240000 nM.

`Cn1c(=O)c(C#N)c(N2CCN(Cc3cc(OC(F)(F)F)ccc3O)CC2)c2nc(Cl)ccc21` [Example 369, 6-chloro-4-(4-{[2-hydroxy-5-(trifluoromethoxy)phenyl]methyl}piperazin-1-yl)-1-methyl-2-oxo-1,2-dihydro-1,5-naphthyridine-3-carbonitrile]: the IC50 on human DGKα is 160 nM; in assay [1] (Homo sapiens, Raji) it was above 100000 nM; at human DGKζ, above 240000 nM.

Consider `Cn1c(=O)c(C#N)c(N2CCN(Cc3ccccc3F)CC2)c2nc(Cl)ccc21` [Example 339, 6-chloro-4-{4-[(2-fluorophenyl)methyl]piperazin-1-yl}-1-methyl-2-oxo-1,2-dihydro-1,5-naphthyridine-3-carbonitrile], for which the half-maximal inhibitory concentration (IC50) at human DGKα is 570 nM; in assay [1] (Homo sapiens, Raji) it was 650 nM; on human DGKζ, above 240000 nM.

Regarding `Cn1c(=O)c([N+](=O)[O-])c(N2CCN(C(c3ccc(F)cc3)c3ccc(F)cc3)CC2)c2nc(Br)ccc21` [Example 53, 4-(4-(bis(4-fluorophenyl)methyl)piperazin-1-yl)-6-bromo-1-methyl-3-nitro-1,5-naphthyridin-2(1H)-one], the IC50 on human DGKα is 1500 nM; in assay [1] (Homo sapiens, Raji), 43 nM; at human DGKζ it was 16000 nM.

As for `Cn1c(=O)c(C#N)c(N2CCN(Cc3c(O)cccc3F)CC2)c2nc(Cl)ccc21` [Example 280, 6-chloro-4-{4-[(2-fluoro-6-hydroxyphenyl)methyl]piperazin-1-yl}-1-methyl-2-oxo-1,2-dihydro-1,5-naphthyridine-3-carbonitrile], the IC50 was 76 nM at human DGKα; 92 nM in assay [1] (Homo sapiens, Raji); above 240000 nM on human DGKζ.

For the molecule `Cn1c(=O)c([N+](=O)[O-])c(N2CCN(C3(c4ccc(F)cc4)CC3)CC2)c2nc(C#N)ccc21` [Example 342, 8-{4-[1-(4-fluorophenyl)cyclopropyl]piperazin-1-yl}-5-methyl-7-nitro-6-oxo-5,6-dihydro-1,5-naphthyridine-2-carbonitrile], the IC50 at human DGKα was 28000 nM; in assay [1] (Homo sapiens, Raji), 790 nM; on human DGKζ it was above 240000 nM.

`Cn1c(=O)c(C#N)c(N2CCN(Cc3cc(F)cc(F)c3O)CC2)c2nc(Br)ccc21` [Example 320, 6-bromo-4-{4-[(3,5-difluoro-2-hydroxyphenyl)methyl]piperazin-1-yl}-1-methyl-2-oxo-1,2-dihydro-1,5-naphthyridine-3-carbonitrile]: the IC50 was 890 nM at human DGKα; 300 nM in assay [1] (Homo sapiens, Raji); above 240000 nM at human DGKζ.

On to `Cn1c(=O)c(C#N)c(N2CCN(Cc3cccc(Br)c3O)CC2)c2nc(Cl)ccc21` [Example 268, 4-{4-[(3-bromo-2-hydroxyphenyl)methyl]piperazin-1-yl}-6-chloro-1-methyl-2-oxo-1,2-dihydro-1,5-naphthyridine-3-carbonitrile], for which the IC50 at human DGKα came out at 680 nM; in assay [1] (Homo sapiens, Raji) it was 51 nM; on human DGKζ it was 120000 nM.

Turning to `Cn1c(=O)c(C#N)c(N2CCN(Cc3cccc(F)c3O)CC2)c2nc(Cl)ccc21` [Example 306, 6-chloro-4-{4-[(3-fluoro-2-hydroxyphenyl)methyl]piperazin-1-yl}-1-methyl-2-oxo-1,2-dihydro-1,5-naphthyridine-3-carbonitrile], the IC50 is 200 nM at human DGKα; 210 nM in assay [1] (Homo sapiens, Raji); above 240000 nM on human DGKζ.

Regarding `COCCn1c(=O)c(C#N)c(N2CCN(C(c3ccc(F)cc3)c3ccc(F)cc3OC)CC2)c2nc(Br)ccc21` (single isomer, unassigned) [Example 115, 6-bromo-4-(4-((4-fluoro-2-methoxyphenyl)(4-fluorophenyl)methyl)piperazin-1-yl)-1-(2-methoxyethyl)-2-oxo-1,2-dihydro-1,5-naphthyridine-3-carbonitrile], the IC50 is 220000 nM at human DGKα, 3800 nM in assay [1] and above 240000 nM on human DGKζ.

For `COc1ccccc1CN1CCN(c2c(C#N)c(=O)n(C)c3ccc(Br)nc23)CC1` [Example 297, 6-bromo-4-{4-[4(2-methoxyphenyl)methyl]piperazin-1-yl}-1-methyl-2-oxo-1,2-dihydro-1,5-naphthyridine-3-carbonitrile], the IC50 was 890 nM on human DGKα; 160 nM in assay [1] (Homo sapiens, Raji); above 240000 nM at human DGKζ.

`COc1ccc2c(c1)C(N1CCN(c3c(C#N)c(=O)n(C)c4ccc(Br)nc34)CC1)CC2` (stereo not drawn) [Example 21, 6-bromo-4-[4-(6-methoxy-2,3-dihydro-1H-inden-1-yl)piperazin-1-yl]-1-methyl-2-oxo-1,2-dihydro-1,5-naphthyridine-3-carbonitrile]: the IC50 turned out to be 22000 nM on human DGKα; 410 nM in assay [1] (Homo sapiens, Raji); 94000 nM on human DGKζ.

For the molecule `Cn1c(=O)c(C#N)c(N2CCN(Cc3ccccc3OC(F)(F)F)CC2)c2nc(Cl)ccc21` [Example 285, 6-chloro-1-methyl-2-oxo-4-(4-{[2-(trifluoromethoxy)phenyl]methyl}piperazin-1-yl)-1,2-dihydro-1,5-naphthyridine-3-carbonitrile], the IC50 at human DGKα is 910 nM; in assay [1] (Homo sapiens, Raji) it was 100 nM; at human DGKζ, above 240000 nM.

For `Cc1cccc(C(c2ccc(F)cc2)N2CCN(c3c([N+](=O)[O-])c(=O)n(C)c4ccc(Br)nc34)CC2)c1O` (single isomer, unassigned) [Example 85, 6-bromo-4-(4-((4-fluorophenyl)(2-hydroxy-3-methylphenyl)methyl)piperazin-1-yl)-1-methyl-3-nitro-1,5-naphthyridin-2(1H)-one], the IC50 was 7600 nM on human DGKα; 100 nM in assay [1] (Homo sapiens, Raji); 770 nM on human DGKζ.
